Data on six compounds can be found in patent US20260364184A1, “COMPOUND BASED ON OXOISOINDOLINYL-SUBSTITUTED TETRAHYDROPYRIMIDINE-DIONE AND USE THEREOF” (GLUETACS THERAPEUTICS (SHANGHAI) CO., LTD., priority 2023, published 2026).

Type in all cases: cell-based
One test has as its target T1, AR (Homo sapiens, UniProt P10275).
T1 construct: expression of target proteins in cells; endogenous in cells
T1 sequence (P10275 1-920): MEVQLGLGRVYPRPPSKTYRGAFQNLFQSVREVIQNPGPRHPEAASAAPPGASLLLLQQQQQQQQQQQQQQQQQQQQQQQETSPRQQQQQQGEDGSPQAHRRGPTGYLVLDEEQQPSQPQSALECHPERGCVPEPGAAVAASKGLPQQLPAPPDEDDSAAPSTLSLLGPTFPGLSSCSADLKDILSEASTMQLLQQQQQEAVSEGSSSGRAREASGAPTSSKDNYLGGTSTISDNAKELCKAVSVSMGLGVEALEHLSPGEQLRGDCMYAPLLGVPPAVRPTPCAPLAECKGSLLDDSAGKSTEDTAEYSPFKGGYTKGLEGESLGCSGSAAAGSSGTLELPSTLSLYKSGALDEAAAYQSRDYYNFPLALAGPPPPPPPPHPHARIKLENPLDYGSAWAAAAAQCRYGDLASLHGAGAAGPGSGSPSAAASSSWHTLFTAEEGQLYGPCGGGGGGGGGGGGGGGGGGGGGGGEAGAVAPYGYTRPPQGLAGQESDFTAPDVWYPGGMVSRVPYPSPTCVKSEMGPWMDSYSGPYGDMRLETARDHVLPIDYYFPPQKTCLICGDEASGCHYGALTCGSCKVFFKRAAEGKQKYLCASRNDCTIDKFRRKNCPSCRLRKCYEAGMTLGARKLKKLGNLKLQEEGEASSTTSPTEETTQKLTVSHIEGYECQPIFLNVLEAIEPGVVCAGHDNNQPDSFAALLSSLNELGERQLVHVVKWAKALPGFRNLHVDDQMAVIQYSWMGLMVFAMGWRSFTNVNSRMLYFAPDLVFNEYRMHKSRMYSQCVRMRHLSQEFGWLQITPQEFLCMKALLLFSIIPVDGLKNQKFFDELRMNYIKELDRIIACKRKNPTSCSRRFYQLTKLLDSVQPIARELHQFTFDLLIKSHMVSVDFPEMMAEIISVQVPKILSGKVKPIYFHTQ
Put plainly: Western blot degradation of AR. To be noted: LnCap Cell; 24 hours. The protocol: Conventional Western blot assay was performed to evaluate the effects of the compounds of the present disclosure on the expression of target proteins in cells.
(1) Cell Seeding and Protein Harvesting: The selected cells were processed according to the cell seeding procedure and protein harvesting procedure in Table II-2.
(2) To the collected supernatant, 5×SDS sample loading buffer was added, followed by denaturation at 95 °C for 5 minutes. The denatured samples were then separated by SDS-PAGE electrophoresis on a polyacrylamide gel. Proteins were transferred to a nitrocellulose membrane (0.45 μm NC membrane), blocked with blocking buffer at room temperature for 1 hour, and subjected to antibody incubation and development procedures according to the antibody manufacturer's instructions (Cell Signaling Technology).
Half-Maximal Degradation Concentration value (the drug concentration required for degrading proteins by 50%, abbreviated as DC50) reads method: comparing the grayscale values of Western blot bands from drug-treated samples with those from blank DMSO-treated controls, and identifying the drug concentration range at which the grayscale value is half that of the DMSO-treated control bands.
DC50 values can be calculated using ImageJ software to measure grayscale values of Western blot bands from drug-treated samples. The concentration-response curve is fitted to estimate the drug concentration corresponding to half the grayscale value.
Target protein remaining (%) refers to the percentage of target protein remaining in cells after treatment with protein degrader compounds.
Calculation method for target protein remaining (%): Use ImageJ software to measure grayscale values of Western blot bands from drug (protein degrader)-treated samples. The grayscale value of drug-treated bands is divided by that of internal control protein bands, and the resulting quotient is normalized to obtain the relative percentage of remaining target protein after protein degrader treatment.
Target protein degradation rate (%)=1−target protein remaining (%).
(A western blot detects proteins with antibodies after separation by electrophoresis.)

The test system of test [1] is Human acute lymphocytic leukemia T lymphocytes cell line (CCRF-CEM). Put plainly: Inhibition of CCRF-CEM cell proliferation (CellTiter luminescent viability). Conditions: Table IF2, AR inhibitor-based; for inhibition at 0.5 µM / inhibition at 0.01 µM: Homo sapiens, 96 h; for inhibition at 0.5 µM: 500 nM, read-out: Inhibition Rate at 500 nM (%); for inhibition at 0.01 µM: read-out: Inhibition Rate at 10 nM (%).

For test [2], the system named is Human T lymphocytic leukemia cell line (Jurkat). Put plainly: Inhibition of Jurkat cell proliferation (CellTiter luminescent viability). To be noted: Homo sapiens, Table IF3, AR inhibitor-based, 96 hours; for inhibition at 0.01 µM: 10 nM, read-out: Inhibition Rate at 10 nM (%); for inhibition at 0.5 µM: 500 nM, read-out: Inhibition Rate at 500 nM (%). The protocol: The tumor cells used herein were cultured in a cell culture medium listed in table 3 at 37 °C in an incubator with 5% CO2. Prior to experimentation, all cell lines used were correctly identified by STR profiling, and tested negative for mycoplasma contamination using a mycoplasma detection kit through routine screenings.
The IC50 values of the compounds of the present disclosure (including the compounds in Table 1, Table 2, and Examples 1-468) were determined using the CellTiter-Meiluncell Luminescent Cell Viability Assay Kit from Dalian Meilun Biotech Co., Ltd. The detailed procedure is as follows: Tumor cells were seeded in 96-well cell culture plates at the densities specified in Table 4. On the following day, the test compounds of the present disclosure were subjected to serial dilution. The dilution can be performed according to one of the following two methods: • (1) The first dilution method: The test compounds of the present disclosure (including the compounds in Table 1, Table 2, and Examples 1-468) were subjected to 5-fold serial dilutions starting from a highest concentration of 2000 μM, resulting in a total of 9 concentrations from high to low (2000, 400, 80, 16, 3.2, 0.64, 0.128, 0.0256, 0.00512 μM). Subsequently, 0.5 μL of the test compound dilution was transferred into the 96-well plate containing the cells, with each well containing 100 μL of cell culture medium. […] Into the 96-well plate, the diluted test compounds and corresponding detection reagents were added, resulting in final test compound concentrations of 500 nM and 10 nM, respectively. The experimental procedure is described below using the diluted 2 μM test compound as an example.
0.5 μL of the aforementioned diluted compound of the present disclosure (including the compounds in Table 1, Table 2, and Examples 1-468) was added to the seeded cells in 100 μL of medium, yielding a final test compound concentration of 10 nM. After the cells were treated with the compounds of the present disclosure for a specified period, the cell viability assay reagent was added to the culture medium according to the kit's instructions to determine cell viability. […] All controls were treated using the same procedure as the compounds of the present disclosure. The growth inhibition curves for the compounds of the present disclosure were plotted using Prism GraphPad software, and the IC50 values were calculated therefrom.

Test [3] deals with Human diffuse large B-cell lymphoma cell line (TMD8). Put plainly: Inhibition of TMD8 cell proliferation (CellTiter luminescent viability). To be noted: Table IF1, AR inhibitor-based; for inhibition at 0.5 µM / inhibition at 0.01 µM: Homo sapiens, TMD8, 96 h; for inhibition at 0.5 µM: TMD8, 500 nM, read-out: Inhibition Rate at 500 nM (%); for inhibition at 0.01 µM: read-out: Inhibition Rate at 10 nM (%).

In general, inhibition refers to the percentage by which the read-out fell short of the control. In the case of `CC1(C)[C@H](NC(=O)c2ccc(N3CCC(CN4CCN(c5ccc6c(c5)C(=O)N(N5CCC(=O)NC5=O)C6=O)CC4)CC3)nc2)C(C)(C)[C@H]1Oc1ccc(C#N)c(Cl)c1` [GT-05301, N-((1r,3r)-3-(3-chloro-4-cyanophenoxy)-2,2,4,4-tetramethylcyclobutyl)-6-(4-((4-(2-(2,4-dioxotetrahydropyrimidin-1(2H)-yl)-1,3-dioxoisoindolin-5-yl)piperazin-1-yl)methyl)piperidin-1-yl)nicotinamide], the “Degradation of substrate protein AR (substrate protein remaining %)” value (shortened to “Degradation … (substrate protein remaining %)”) at AR is recorded as “A (0%≤substrate protein remaining %≤80%)”. Moreover, the inhibition at 0.5 µM in test [1] lay within 30 to 40%; in test [2], 20 to 30%; in test [3], 40 to 60%. Also, the “Inhibition Rate at 10 nM (%)” value in test [1] (10 nM, 96 hours, 0.01 µM) is given as “IFb5 (15% ≤ IFb5 < 20%)”; in test [3] (TMD8, 10 nM, 96 hours, 0.01 µM), “IFa6 (25% ≤ IFa6 < 30%)”. Moreover, in test [2], the inhibition at 0.01 µM fell in the range of 10 to 15%.

As to `CC1(C)[C@H](NC(=O)c2ccc(N3CCC(CN4CC5CCC(C4)N5c4ccc5c(c4)C(=O)N(N4CCC(=O)NC4=O)C5=O)CC3)nc2)C(C)(C)[C@H]1Oc1ccc(C#N)c(Cl)c1` [GT-05305, N-((1r,3r)-3-(3-chloro-4-cyanophenoxy)-2,2,4,4-tetramethylcyclobutyl)-6-(4-((8-(2-(2,4-dioxotetrahydropyrimidin-1(2H)-yl)-1,3-dioxoisoindolin-5-yl)-3,8-diazabicyclo[3.2.1]octan-3-yl)methyl)piperidin-1-yl)nicotinamide], the “Degradation … (substrate protein remaining %)” value at AR is “A (0%≤substrate protein remaining %≤80%)”. Also, the inhibition at 0.01 µM in test [1] (10 nM) lay within 20 to 30%; in test [2], 10 to 15%; in test [3] (TMD8, 10 nM), 25 to 30%. The inhibition at 0.5 µM in test [1], in test [2] and in test [3] was 40 to 60% throughout.

Consider `CC1(C)[C@H](NC(=O)c2ccc(N3CCC(CN4CCN(c5cc(F)c6c(c5)C(=O)N(N5CCC(=O)NC5=O)C6=O)CC4)CC3)nc2)C(C)(C)[C@H]1Oc1ccc(C#N)c(Cl)c1` [GT-05346, N-((1r,3r)-3-(3-chloro-4-cyanophenoxy)-2,2,4,4-tetramethylcyclobutyl)-6-(4-((4-(2-(2,4-dioxotetrahydropyrimidin-1(2H)-yl)-7-fluoro-1,3-dioxoisoindolin-5-yl)piperazin-1-yl)methyl)piperidin-1-yl)nicotinamide], for which, on AR, the “Degradation … (substrate protein remaining %)” value was “A (0%≤substrate protein remaining %≤80%)”. The inhibition at 0.01 µM lay within 15 to 20% in test [1] (10 nM); 0 to 5% in test [2]; 15 to 20% in test [3] (TMD8, 10 nM). Moreover, the values for the inhibition at 0.5 µM in test [1], in test [2] and in test [3] were 20 to 30%, 20 to 30% and 35 to 40%, respectively.

In the case of `N#Cc1ccc(O[C@H]2CC[C@H](NC(=O)c3ccc(N4CCC(CN5C6CC5CN(c5ccc7c(c5)C(=O)N(N5CCC(=O)NC5=O)C7=O)C6)CC4)nn3)CC2)cc1Cl` [GT-05821, N-((1r,4r)-4-(3-chloro-4-cyanophenoxy)cyclohexyl)-6-(4-((3-(2-(2,4-dioxotetrahydropyrimidin-1(2H)-yl)-1,3-dioxoisoindolin-5-yl)-3,6-diazabicyclo[3.1.1]heptan-6-yl)methyl)piperidin-1-yl)pyridazine-3-carboxamide], the “Degradation … (substrate protein remaining %)” value at AR is “A (0%≤substrate protein remaining %≤80%)”. Moreover, the inhibition at 0.01 µM in test [1] (10 nM) lay within 15 to 20%; in test [2], 10 to 15%; in test [3] (TMD8, 10 nM), 15 to 20%. Also, the inhibition at 0.5 µM in test [1] was in the range of 30 to 40%; in test [2] it was 20 to 30%; in test [3], 40 to 60%.

Take `CC1(C)[C@H](NC(=O)c2ccc(N3CCC(CN4C5CC4CN(c4ccc6c(c4)C(=O)N(N4CCC(=O)NC4=O)C6=O)C5)CC3)nc2)C(C)(C)[C@H]1Oc1ccc(C#N)c(Cl)c1` [GT-05823, N-((1r,3r)-3-(3-chloro-4-cyanophenoxy)-2,2,4,4-tetramethylcyclobutyl)-6-(4-((3-(2-(2,4-dioxotetrahydropyrimidin-1(2H)-yl)-1,3-dioxoisoindolin-5-yl)-3,6-diazabicyclo[3.1.1]heptan-6-yl)methyl)piperidin-1-yl)nicotinamide]: the “Degradation … (substrate protein remaining %)” value on AR is reported as “A (0%≤substrate protein remaining %≤80%)”. The inhibition at 0.01 µM in test [1] (10 nM) was 5 to 10%; in test [2] it was 5 to 10%; in test [3] (TMD8, 10 nM), 10 to 15%. The inhibition at 0.5 µM lay within 20 to 30% in test [1], 20 to 30% in test [2] and 35 to 40% in test [3].

In the case of `N#Cc1ccc(O[C@H]2CC[C@H](NC(=O)c3ccc(N4CCC(CN5C6CCC5CN(c5ccc7c(c5)C(=O)N(N5CCC(=O)NC5=O)C7=O)C6)CC4)nn3)CC2)cc1Cl` [GT-05824, N-((1r,4r)-4-(3-chloro-4-cyanophenoxy)cyclohexyl)-6-(4-((3-(2-(2,4-dioxotetrahydropyrimidin-1(2H)-yl)-1,3-dioxoisoindolin-5-yl)-3,8-diazabicyclo[3.2.1]octan-8-yl)methyl)piperidin-1-yl)pyridazine-3-carboxamide], the “Degradation … (substrate protein remaining %)” value at AR was “A (0%≤substrate protein remaining %≤80%)”. In addition, the inhibition at 0.01 µM in test [1] (10 nM) lay within 10 to 15%; in test [2], 5 to 10%; in test [3] (TMD8, 10 nM) it was 15 to 20%. Also, the inhibition at 0.5 µM was 30 to 40% in test [1], 30 to 40% in test [2] and 40 to 60% in test [3].
